# pIC50: −log10 of the molar value. Like-named read-outs stand apart in the source and are kept apart here. Where a SMILES comes first, the peptide text is derived from it. Bridges are numbered along the chain shown (N, C = ends). [ ]: non-standard residue; d: D form. 2Nal = N[C@@H](Cc1ccc2ccccc2c1)C(=O)O; AEF = NCCOc1ccc(C[C@H](N)C(=O)O)cc1; Pen = CC(C)(S)[C@H](N)C(=O)O; Thp = NC1(C(=O)O)CCOCC1
# Experiments:
# [1] = Stability in simulated intestinal fluid (SIF); format: in vitro ADME; design: dose or concentration left out as unconfirmed; conditions: simulated intestinal fluid (SIF) with pancreatin, pH 6.8; read-out: Stability (t1/2, hr) SIF (converted)
# [2] = system: TNBS-induced acute colitis, Sprague-Dawley rats; test: TNBS induced colitis in rat; format: in vivo
# [3] = system: distal colon tissue of TNBS-exposed rats; test: Biomarkers in distal colon of TNBS rats (ELISA); format: in vivo, rat; conditions: vs vehicle treated controls
# Experimental: Levels of inflammatory markers were examined in the colons. The distal colon tissue samples, designated for protein expression analysis, were flash frozen after collection. For protein extraction, the samples were thawed, weighed and homogenized in the extraction buffer (PBS pH 7.2 supplemented with Protease Inhibitors, 3× volume:weight). The homogenates were centrifuged at 13 krpm at 4° C. for 15 minutes, a total of two times to remove the debris. The supernatants were saved in multiple aliquots in −80° C. and subsequently used for protein expression analysis on ELISA. The total protein in each sample was quantified using BCA assay.
# [4] = Stability in simulated gastric fluid (SGF); format: in vitro ADME; conditions: pig, simulated gastric fluid (SGF) with porcine pepsin, pH 2
# IL-23R in human DB cells = test: Schild analysis, Human DB Cell (pSTAT3); format: cell-based; conditions: 0.3-100 nM peptide
# [5] = target: human IL-23R (IL23R_huFC) (Homo sapiens, UniProt Q5VWK5); conditions: read-out: ELISA IL23R/IL23 in nMoles (IC50); non-cyclic peptides
# Chain of human IL-23R (IL23R_huFC) (Q5VWK5 24-354 limits assumed, looked up): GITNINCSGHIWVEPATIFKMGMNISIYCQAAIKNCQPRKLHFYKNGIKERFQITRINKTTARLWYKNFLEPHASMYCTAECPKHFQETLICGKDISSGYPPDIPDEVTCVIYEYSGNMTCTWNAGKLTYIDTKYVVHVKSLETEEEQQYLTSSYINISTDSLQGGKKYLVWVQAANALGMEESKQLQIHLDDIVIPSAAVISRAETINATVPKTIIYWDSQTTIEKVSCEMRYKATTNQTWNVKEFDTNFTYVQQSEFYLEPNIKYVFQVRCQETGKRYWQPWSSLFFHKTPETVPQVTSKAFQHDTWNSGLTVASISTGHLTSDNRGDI
# [6] = DTT stability assay (redox stability); format: in vitro ADME; conditions: half-life, 0.5 mM DTT, room temperature, numeric
# [7] = system: DSS-induced colitis, Sprague Dawley rats; test: Rat Colitis Model: 9 Days of 3% DSS-Containing Drinking Water; format: in vivo; conditions: 100 mg/kg PO, QD
# Cyno IL-23R = format: binding
# rat splenocytes = test: Rat Splenocyte Assay (IL-17A); format: cell-based; conditions: IL-17A produced by activated splenocytes exposed to IL-23; read-out: Cell assay (nM) Rat (Spleen), IC50
# Experimental: A new assay developed was the rat splenocyte assay.
# Briefly, splenocytes freshly isolated from rat were seeded in 96-well tissue culture plates in complete medium containing IL-10. […] Changes in IL-17A levels in the supernatants were detected using an ELISA.
# [8] = read-out: Cross Reactivity (nM) ELISA cyno IL23R IL23
compound,measurement,setting,value
CC(=O)N[C@@H]1CCSC[C@@H](C(=O)N[C@@H](Cc2ccc(OCCN)cc2)C(=O)N[C@@H](Cc2ccc3ccccc3c2)C(=O)NC2(C(=O)N[C@@H](CCC(=O)O)C(=O)N[C@@H](CC(N)=O)C(=O)N[C@@H](CC(N)=O)C(N)=O)CCOCC2)NC(=O)[C@H](CCC(N)=O)NC(=O)[C@H](Cc2c[nH]c3ccccc23)NC(=O)[C@H]([C@@H](C)O)NC(=O)[C@@H](CCC(N)=O)NC1=O [SEQ ID NO: 980],half-life,[1],11 h
same,colon macroscopic score,"[2]; Example 14, vs vehicle",significantly reduced
same,sum of the histopathology score,"[2]; Example 14, vs vehicle",significantly reduced
same,weight loss,"[2]; Example 14, 37 mg/kg/day oral",prevented
same,IL-22 level in colon,[3],reduced
same,MPO level in colon,[3],reduced
same,half-life at 20 μM,[4],600 min
"CC(=O)NCCCC[C@H](NC(=O)C1(NC(=O)[C@H](Cc2ccc3ccccc3c2)NC(=O)[C@H](Cc2ccc(OCCN)cc2)NC(=O)[C@H]2NC(=O)[C@H](CCC(N)=O)NC(=O)[C@H](Cc3c[nH]c4ccccc34)NC(=O)[C@H]([C@@H](C)O)NC(=O)[C@H](CC(N)=O)NC(=O)[C@@H](NC(C)=O)C(C)(C)SSC2(C)C)CCOCC1)C(=O)N[C@@H](CC(N)=O)C(=O)N[C@@H](CC(N)=O)C(=O)N[C@@H](CC(N)=O)C(N)=O [SEQ ID NO: 1211, Ac-[Pen]-NTWQ-[Pen]-[Phe[4-(2-aminoethoxy)]-[2-Nal]-[4-amino-4-carboxy-tetrahydropyran]-[Lys(Ac)]-NNN-NH2] (Ac-[Pen]NTWQ[Pen][AEF][2Nal][Thp]K(Ac)NNN-NH2; disulfide 1-6)",Schild slope,IL-23R in human DB cells,0.76
"CC(=O)NC1CCSCC(C(=O)NC(Cc2ccc(OCCN)cc2)C(=O)NC(Cc2ccc3ccccc3c2)C(=O)NC2(C(=O)NC(CCC(=O)O)C(=O)NC(CC(N)=O)C(=O)NC(CC(N)=O)C(N)=O)CCOCC2)NC(=O)C(CCC(N)=O)NC(=O)C(Cc2c[nH]c3ccccc23)NC(=O)C(C(C)O)NC(=O)C(CCC(N)=O)NC1=O (stereo not shown) [SEQ ID NO: 1290, Ac-cyclo[[Abu]-QTWQC]-[Phe[4-(2-aminoethoxy)]-[2-Nal]-[4-amino-4-carboxy-tetrahydropyran]-ENN-NH2]",pIC50,[5],< 4.00
same,DTT Stability,[6],>120 min
O=C(O)c1cc(/N=N/c2ccc(S(=O)(=O)Nc3ccccn3)cc2)ccc1O [sulfasalazine],terminal ratio of colon weight:colon length,[7]; difference vs DSS alone,significant
same,disease score (DAI),"[7]; from Day 5, vs DSS alone",attenuated
Ac-[Pen]-NTWQ-[Pen]-[Phe[4-(2-aminoethoxy)]-[2-Nal]-[4-amino-4-carboxy-tetrahydropyran]-[Lys(Ac)]—NN—NH2 [SEQ ID NO: 1185],histopathology scores,[2]; Example 12,did not significantly reduce
same,colon macroscopic score,"[2]; Example 12, vs vehicle",significantly reduced
same,weight loss,"[2]; Example 12, Peptide 1185 37 mg/kg/day PO, anti-IL-23p19 4 mg/kg ip, prednisolone 10 mg/day P.O., vs vehicle",did not significantly prevent
same,IL-17A level in colon,[3],did not significantly reduce
same,IL-22 level in colon,[3],did not significantly reduce
same,MPO level in colon,[3],did not significantly reduce
same,IC50,"Cyno IL-23R; IL-23/IL-23R competitive binding, cyno, read-out: ELISA (nM) Cyno, IC50",3 nM
same,IC50,rat splenocytes,35 nM
H-CSNWVCYWHTYG-NH2 (cysteine pairing not given here) [SEQ ID NO: 198],IC50,Cyno IL-23R; [8],< 250 nM
Hy-CADWVCYWHTFG-NH2 [SEQ ID NO: 169],IC50,Cyno IL-23R; [8],1000 to 10000 nM

# Source: patent US10787490B2, “Peptide inhibitors of interleukin-23 receptor and their use to treat inflammatory diseases” (Protagonist Therapeutics, Inc., priority 2015, dated 2020)
